Results: article PMC8158484, “Activity Components from Gynostemma pentaphyllum for Preventing Hepatic Fibrosis and of Its Molecular Targets by Network Pharmacology Approach” (Molecules, 2021)
Like-named read-outs stand apart in the source and are kept apart here.

Experiments:
Format in all cases: cell-based, human
t-HSC/Cl-6 cells [1] = experiment: MTT cell proliferation assay, activated t-HSC/Cl-6 cells; conditions: mean ± SD, read-out: Inhibitory activity (IC50) in activated t-HSC/Cl-6 cells
Protocol: (§1) The cell viability was assessed with the MTT assay. The human hepatic stellate cells (t-HSC/Cl-6) and human normal liver cells (LO2) bought from the Cell Bank of Chinese Academy of Sciences (Shanghai, China) were seeded in 96-well plates for 24 h and cultured with high glucose including 10% fetal bovine serum, and 1% penicillin/streptomycin were used to culture cells at 37 °C under 5% CO2 and then were treated with serial dilutions of the compounds (25, 50, 100, 200, 400 μM) for another 36 h. For MTT assay, ten microliters of MTT reagent ([…]) was added to each well after removing all the liquid in the wells, and incubated at 37 °C in a humidified atmosphere of 5% CO2 air for 4 h. At the end of incubation, the growth medium was removed and replaced with 100 μL of DMSO at room temperature and agitating on a vortex for 20 min. The absorbance was determined at 490 nm as reference on a Bio-Rad micro-plate reader.

LO2 cells [2] = experiment: MTT cell proliferation assay, LO2 normal liver cells; conditions: for IC50: 36 h, MTT, read-out: Inhibitory activity (IC50) in LO2 cells
Protocol: as §1

t-HSC/C1-6 cells = experiment: Cell cycle analysis by flow cytometry (propidium iodide); conditions: 50 μM compound, 36 h; control group 1.04%
Protocol: The cell cycle analysis was performed using a previous method. The t-HSC/C1-6 cells were cultured in the presence of 50 μM compound 19 and DMSO for 12 h, 24 h, and 36 h. Briefly, treated and untreated cells were trypsinized, harvested, and washed with PBS. Then the cells were fixed with 75% ethanol overnight at […]. Fixed cells were washed with PBS and stained with propidium iodide solution in the dark for 4 h. Cell cycle distribution was analyzed using FACScan (Becton Dickinson Immunocytometry Systems, San Jose, CA, USA).

t-HSC/Cl-6 cells [3] = experiment: Cell apoptosis analysis: cell morphology and DAPI nuclear staining, t-HSC/Cl-6 cells; conditions: 36 h
Protocol: (§2) For cell morphology analysis, t-HSC/C1-6 cells and LO2 cells were grown in 6-well plates. After 24 h, compound 19 was incubated with the cells for another 36 h and 0.1% DMSO was used to culture control cells. […] Then the cells were rinsed with PBS and resuspended in 1 mL of 0.1% DAPI prepared in methanol for 15 min. PBS was used to wash the cells three times. Nuclear morphology was observed by a fluorescent microscope (Olympus BH-2, Osaka, Japan).

LO2 cells [4] = experiment: Cell apoptosis analysis: cell morphology and DAPI nuclear staining, LO2 cells; conditions: 36 h
Protocol: as §2

t-HSC/Cl-6 cells [5] = experiment: Western blotting of cell cycle, PI3K/Akt and caspase proteins
Protocol: RIPA lysis buffer was used to extract total cellular proteins, and the protein concentration was determined by bicinchoninic acid. Protein samples (20 μg/lane) were loaded onto 10% SDS–PAGE gels for electrophoresis and then the transmembrane was conducted. After that, blocking of polyvinylidene fluoride (PVDF) membrane was carried out using 5% bovine serum albumin in Tris-buffered saline Tween-20 (TBST) buffer for 1 h, subsequently probing with a primary antibody (1:1000 dilution), such as p-PI3K, p-Akt, Cl-caspase-3, Cl-caspase-9, Cl-PARP, CDK4, Cyclin D1, or P21, at 4 °C overnight. Then, TBTS was used to wash the membrane. The PVDF membranes were incubated with the secondary antibody (1:5000 dilution) for 2 h. X-ray films were employed to develop the signals.

[6] = Rattus norvegicus, T-HSC/Cl-6, 36 h
[7] = dose-dependent manner as printed

Row | Structure (SMILES) | IC50 (t-HSC/Cl-6 cells [1]; [6]) [µM] | IC50 (LO2 cells [2]; Homo sapiens, L02) [µM] | further results
1 | CC(C)=CCCC(O)(COC1OC(CO)C(O)C(O)C1O)C1CCC2(C)C1CCC1C3(C)CCC(OC4OC(CO)C(O)C(OC5OCC(O)C(O)C5O)C4OC4OCC(O)C(O)C4O)C(C)(C)C3CCC12C (centres unmarked) [Compound 1] | > 200 | > 200 | –
2 | CC(C)=CCCC(O)(CO)C1CCC2(C)C1CCC1C3(C=O)CCC(OC4OCC(O)C(O)C4OC4OC(C)C(O)C(O)C4O)C(C)(C)C3CCC12C (centres unmarked) [Compound 2] | 50.4 ± 1.4 | > 200 | –
3 | C=C(C)OCC1OC(OC2CCC3(C)C(CCC4(C)C3CCC3C(C(O)(CCC=C(C)C)COC5OC(CO)C(O)C(O)C5O)CCC34C)C2(C)C)C(OC2OC(C)C(O)C(O)C2O)C(OC2OCC(O)C(O)C2O)C1O (centres unmarked) [Compound 3] | > 200 | > 200 | –
4 | C=C(C)OCC1OC(OC2CCC3(C)C(CCC4(C)C3CCC3C(C5(O)CC(C=C(C)C)OC5=O)CCC34C)C2(C)C)C(OC2OC(C)C(O)C(O)C2O)C(OC2OCC(O)C(O)C2O)C1O (centres unmarked) [Compound 4] | 126 ± 9.7 | > 200 | –
5 | C=C(C)OCC1OC(OC2CCC3(C)C(CCC4(C)C3CCC3C(C5(O)CC(C=C(C)C)OC5O)CCC34C)C2(C)C)C(OC2OC(C)C(O)C(O)C2O)C(OC2OCC(O)C(O)C2O)C1O (centres unmarked) [Compound 5] | > 200 | > 200 | –
6 | CC(C)=CC1CC(O)(C2CCC3(C)C2CCC2C4(C)CCC(OC5OC(CO)C(O)C(OC6OCC(O)C(O)C6O)C5OC5OC(C)C(O)C(O)C5O)C(C)(C)C4CCC23C)C(=O)O1 (centres unmarked) [Compound 6] | – | – | IC50 (t-HSC/Cl-6 cells [1]; 36 h): 99.9 ± 4.5 µM; IC50 (LO2 cells [2]): > 200 µM
7 | CC(C)=CCCC(O)(CO)C1CCC2(C)C1CCC1C3(C)CCC(OC4OC(CO)C(O)C(OC5OCC(O)C(O)C5O)C4OC4OC(C)C(O)C(O)C4O)C(C)(C)C3CCC12C (centres unmarked) [Compound 7] | 152 ± 7.4 | > 200 | –
8 | CC(C)=CC1CC(O)(C2CCC3(C)C2CCC2C4(C)CCC(OC5OC(CO)C(O)C(OC6OCC(O)C(O)C6O)C5OC5OC(C)C(O)C(O)C5O)C(C)(C)C4CCC23C)C(O)O1 (centres unmarked) [Compound 8] | 68.8 ± 3.2 | > 200 | –
9 | CC(C)=CC1CC(O)(C2CCC3(C)C2CCC2C4(C)CCC(OC5OC(CO)C(O)C(OC6OCC(O)C(O)C6O)C5OC5OC(C)C(O)C(O)C5O)C(C)(C)C4CCC23C)C(=O)O1 (centres unmarked) [Compound 9] | 114 ± 7.8 | > 200 | –
10 | CC(C)=CCCC(O)(COC1OC(CO)C(O)C(O)C1O)C1CCC2(C)C1CCC1C3(C=O)CCC(OC4OCC(O)C(OC5OC(CO)C(O)C(O)C5O)C4OC4OC(C)C(O)C(O)C4O)C(C)(C)C3CCC12C (centres unmarked) [Compound 10] | > 200 | > 200 | –
11 | CC(C)=CCCC(O)(CO)C1CCC2(C)C1CCC1C3(C=O)CCC(OC4OCC(O)C(OC5OCC(O)C(O)C5O)C4OC4OC(C)C(O)C(O)C4O)C(C)(C)C3CCC12C (centres unmarked) [Compound 11] | 43.6 ± 2.7 | > 200 | –
12 | CC(C)=CCCC(O)(COC1OC(CO)C(O)C(O)C1O)C1CCC2(C)C1CCC1C3(C)CCC(OC4OC(CO)C(O)C(OC5OCC(O)C(O)C5O)C4OC4OC(C)C(O)C(O)C4O)C(C)(C)C3CCC12C (centres unmarked) [Compound 12] | > 200 | > 200 | –
13 | CC(C)=CCCC(O)(COC1OC(CO)C(O)C(O)C1O)C1CCC2(C)C1CCC1C3(C)CCC(OC4OC(CO)C(O)C(OC5OCC(O)C(O)C5O)C4OC4OC(C)C(O)C(O)C4O)C(C)(C)C3CCC12C (centres unmarked) [Compound 13] | – | – | IC50 (t-HSC/Cl-6 cells [1]; 36 h): 106 ± 2.6 µM; IC50 (LO2 cells [2]): > 200 µM
14 | CC(C)=CCCC(O)(COC1OC(CO)C(O)C(O)C1O)C1CCC2(C)C1CCC1C3(CO)CCC(OC4OC(CO)C(O)C(OC5OCC(O)C(O)C5O)C4OC4OC(C)C(O)C(O)C4O)C(C)(C)C3CCC12C (centres unmarked) [Compound 14] | > 200 | > 200 | –
15 | CC(C)=CCCC(O)(COC1OC(CO)C(O)C(O)C1O)C1CCC2(C)C1CCC1C3(CO)CCC(OC4OCC(O)C(OC5OCC(O)C(O)C5O)C4OC4OC(C)C(O)C(O)C4O)C(C)(C)C3CCC12C (centres unmarked) [Compound 15] | > 200 | > 200 | –
16 | CCCCOC1OC(C=C(C)C)CC1(O)C1CCC2(C)C1CCC1C3(C)CCC(OC4OCC(O)C(OC5OCC(O)C(O)C5O)C4OC4OC(C)C(O)C(O)C4O)C(C)(C)C3CCC12C (centres unmarked) [Compound 16] | 44.7 ± 1 | > 200 | –
17 | CC(=O)OCC1OC(OC2CCC3(C)C(CCC4(C)C3CCC3C(C5(O)CC(C=C(C)C)OC5=O)CCC34C)C2(C)C)C(OC2OC(C)C(O)C(O)C2O)C(OC2OCC(O)C(O)C2O)C1O (centres unmarked) [Compound 17] | 66.1 ± 3.8 | > 200 | –
18 | C=C(C)C=CCC(O)(COC1OC(CO)C(O)C(O)C1O)C1CCC2(C)C1CCC1C3(C)CCC(OC4OC(CO)C(O)C(OC5OCC(O)C(O)C5O)C4OC4OCC(O)C(O)C4O)C(C)(C)C3CCC12C (centres unmarked) [Compound 18] | 58 ± 2.9 | > 200 | –
19 | CCCCOC1OC(C=C(C)C)CC1(O)C1CCC2(C)C1CCC1C3(C)CCC(OC4OC(CO)C(O)C(OC5OCC(O)C(O)C5O)C4OC4OC(C)C(O)C(O)C4O)C(C)(C)C3CCC12C (centres unmarked) [Compound 19] | 28.1 ± 2 | > 200 | Cytotoxicity to LO2 cells (LO2 cells [2]; in words): nontoxic; Cells in the subG1 phase (t-HSC/C1-6 cells): 38.63%; Nuclear morphology of t-HSC/Cl-6 cells (DAPI staining) (t-HSC/Cl-6 cells [3]): Typical apoptotic nuclear changes were observed; Cell morphology (apoptosis) of t-HSC/Cl-6 cells (t-HSC/Cl-6 cells [3]; phase contrast microscopy): apoptotic bodies and cell shrinkage were observed; Nuclear morphology of LO2 cells (DAPI staining) (LO2 cells [4]): did not appear to have any specific effect; Cell morphology of LO2 cells (LO2 cells [4]; phase contrast microscopy): no shrinkage was seen; cyclin D1 expression (t-HSC/Cl-6 cells [5]): decreased; p21 level (t-HSC/Cl-6 cells [5]): significant accumulation; Expression of phosphorylated-Akt (t-HSC/Cl-6 cells [5]; as time increased): inhibited; Expression of phosphorylated-PI3K (t-HSC/Cl-6 cells [5]; as time increased): inhibited; Expression level of cleaved caspase-3 (t-HSC/Cl-6 cells [5]; [7]): activated; Expression level of cleaved caspase-9 (t-HSC/Cl-6 cells [5]; [7]): activated
